How the values were obtained:
barnyardgrass [1] = experiment: Test A preemergence; type: in vivo, Echinochloa crus-galli; settings: for Barnyardgrass plant response rating (0 to 100 scale, 0 is no effect, 100 is complete control): 125 g ai/ha; for Barnyardgrass plant response rating: 500 g ai/ha, 0 to 100 scale where 0 is no effect and 100 is complete control
Outline: (§1)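 Visual 0–100 rating (100 = complete control) taken about 10 d post-treatment relative to untreated checks. Preemergence: directed soil spray on sown loam/sand pots. Postemergence: seedlings 2–10 cm, 1–2 leaf. Non-phytotoxic solvent formulation with surfactant.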

large (Lg) crabgrass [2] = experiment: Test A preemergence; type: in vivo, Digitaria sanguinalis; settings: for Crabgrass, Large plant response rating (0 to 100 scale): 125 g ai/ha; for Crabgrass, Large plant response rating: 500 g ai/ha, 0 to 100 scale where 0 is no effect and 100 is complete control
Outline: as §1

giant foxtail [3] = experiment: Test A preemergence; type: in vivo, Setaria faberii; settings: for Foxtail, Giant plant response rating (0 to 100 scale): 125 g ai/ha; for Foxtail, Giant plant response rating: 500 g ai/ha, 0 to 100 scale where 0 is no effect and 100 is complete control
Outline: as §1

morningglory [4] = experiment: Test A preemergence; type: in vivo, Ipomoea spp.; settings: for Morningglory plant response rating (0 to 100 scale): 125 g ai/ha; for Morningglory plant response rating: 500 g ai/ha, 0 to 100 scale where 0 is no effect and 100 is complete control
Outline: as §1

pigweed [5] = experiment: Test A preemergence; type: in vivo, Amaranthus retroflexus; settings: for Pigweed plant response rating (0 to 100 scale): 125 g ai/ha; for Pigweed plant response rating: 500 g ai/ha, 0 to 100 scale where 0 is no effect and 100 is complete control
Outline: as §1

velvetleaf [6] = experiment: Test A preemergence; type: in vivo, Abutilon theophrasti; settings: for Velvetleaf plant response rating (0 to 100 scale): 125 g ai/ha; for Velvetleaf plant response rating: 500 g ai/ha, 0 to 100 scale where 0 is no effect and 100 is complete control
Outline: as §1

wheat [7] = experiment: Test A preemergence; type: in vivo, Triticum aestivum; settings: for Wheat plant response rating (0 to 100 scale): 125 g ai/ha; for Wheat plant response rating: 500 g ai/ha, 0 to 100 scale where 0 is no effect and 100 is complete control
Outline: as §1

corn [8] = experiment: Test A preemergence; type: in vivo, Zea mays; settings: for Corn plant response rating (0 to 100 scale): 125 g ai/ha; for Corn plant response rating: 500 g ai/ha, 0 to 100 scale where 0 is no effect and 100 is complete control
Outline: as §1

barnyardgrass [9] = experiment: Test A postemergence; type: in vivo, Echinochloa crus-galli
Outline: as §1

large (Lg) crabgrass [10] = experiment: Test A postemergence; type: in vivo, Digitaria sanguinalis
Outline: as §1

giant foxtail [11] = experiment: Test A postemergence; type: in vivo, Setaria faberii
Outline: as §1

morningglory [12] = experiment: Test A postemergence; type: in vivo, Ipomoea spp.
Outline: as §1

pigweed [13] = experiment: Test A postemergence; type: in vivo, Amaranthus retroflexus
Outline: as §1

velvetleaf [14] = experiment: Test A postemergence; type: in vivo, Abutilon theophrasti
Outline: as §1

wheat [15] = experiment: Test A postemergence; type: in vivo, Triticum aestivum
Outline: as §1

corn [16] = experiment: Test A postemergence; type: in vivo, Zea mays
Outline: as §1

rice = experiment: Test B flooded paddy test; type: in vivo, Oryza sativa; settings: Flood, 250 g ai/ha; 0 to 100 scale where 0 is no effect and 100 is complete control
Outline: (§2)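 Plants at 2-leaf stage; pots flooded to 3 cm above soil and compound applied directly into paddy water, depth held throughout. After 13 to 15 days in greenhouse, visual rating versus controls on 0 (no effect) to 100 (complete control) scale.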

sedge, umbrella = experiment: Test B flooded paddy test; type: in vivo, Cyperus difformis; settings: Flood, 250 g ai/ha; 0 to 100 scale where 0 is no effect and 100 is complete control
Outline: as §2

Heteranthera limosa = experiment: Test B flooded paddy test; type: in vivo; settings: Flood, 250 g ai/ha; 0 to 100 scale where 0 is no effect and 100 is complete control
Outline: as §2

barnyardgrass [17] = experiment: Test B flooded paddy test; type: in vivo, Echinochloa crus-galli; settings: Flood, 250 g ai/ha; 0 to 100 scale where 0 is no effect and 100 is complete control
Outline: as §2

[18] = 125 g ai/ha, 0 to 100 scale where 0 is no effect and 100 is complete control
[19] = 500 g ai/ha, 0 to 100 scale where 0 is no effect and 100 is complete control
[20] = 125 g ai/ha, 0 to 100 scale, 0 no effect, 100 complete control

Row | SMILES | Barnyardgrass plant response rating (0 to 100 scale, 0 is no effect, 100 is complete control) (barnyardgrass [1]) | Barnyardgrass plant response rating (barnyardgrass [1]) | Crabgrass, Large plant response rating (0 to 100 scale) (large (Lg) crabgrass [2]) | Crabgrass, Large plant response rating (large (Lg) crabgrass [2]) | Foxtail, Giant plant response rating (0 to 100 scale) (giant foxtail [3]) | Foxtail, Giant plant response rating (giant foxtail [3]) | Morningglory plant response rating (0 to 100 scale) (morningglory [4]) | Morningglory plant response rating (morningglory [4]) | Pigweed plant response rating (0 to 100 scale) (pigweed [5]) | Pigweed plant response rating (pigweed [5]) | Velvetleaf plant response rating (0 to 100 scale) (velvetleaf [6]) | Velvetleaf plant response rating (velvetleaf [6]) | Wheat plant response rating (0 to 100 scale) (wheat [7]) | Wheat plant response rating (wheat [7]) | Corn plant response rating (0 to 100 scale) (corn [8]) | Corn plant response rating (corn [8]) | Plant response rating, Barnyardgrass (barnyardgrass [9]; [19]) | Plant response rating, Crabgrass, Large (large (Lg) crabgrass [10]; [19]) | Plant response rating, Foxtail, Giant (giant foxtail [11]; [19]) | Plant response rating, Morningglory (morningglory [12]; [19]) | further results
1 | Clc1cnc(Oc2ccccc2-n2cc(-c3ccccn3)cn2)nc1 [Compound 190] | 0 | 10 | 20 | 90 | 10 | 80 | 0 | 20 | 100 | 100 | 50 | 60 | 0 | 0 | 0 | 0 | 10 | 50 | 40 | 90 | Barnyardgrass plant response rating (barnyardgrass [9]; [18]): 0; Crabgrass, Large plant response rating (large (Lg) crabgrass [10]; [18]): 10; Foxtail, Giant plant response rating (giant foxtail [11]; [18]): 0; Morningglory plant response rating (morningglory [12]; [18]): 30; Pigweed plant response rating (pigweed [13]; [18]): 100; Plant response rating, Pigweed (pigweed [13]; [19]): 100; Velvetleaf plant response rating (velvetleaf [14]; [18]): 60; Plant response rating, Velvetleaf (velvetleaf [14]; [19]): 80; Wheat plant response rating (wheat [15]; [18]): 0; Plant response rating, Wheat (wheat [15]; [19]): 0; Corn plant response rating (corn [16]; [18]): 0; Plant response rating, Corn (corn [16]; [19]): 20; Plant response rating, Rice (rice): 0; Plant response rating, Sedge, Umbrella (sedge, umbrella): 0; Plant response rating, Ducksalad (Heteranthera limosa): 0; Plant response rating, Barnyardgrass (barnyardgrass [17]): 0
2 | CCOC(=O)c1cnn(-c2c(C#N)cccc2Oc2ncc(Br)cn2)c1 [Compound 294] | 0 | 20 | 30 | 60 | 30 | 70 | 0 | 0 | 100 | 100 | 10 | 70 | 0 | 0 | 0 | 0 | 60 | 50 | 50 | 30 | Plant response rating, Barnyardgrass (barnyardgrass [9]; [20]): 20; Plant response rating, Crabgrass, Large (large (Lg) crabgrass [10]; [20]): 0; Plant response rating, Foxtail, Giant (giant foxtail [11]; [20]): 10; Plant response rating, Morningglory (morningglory [12]; [20]): 20; Plant response rating, Pigweed (pigweed [13]; [20]): 60; Plant response rating, Pigweed (pigweed [13]; [19]): 90; Plant response rating, Velvetleaf (velvetleaf [14]; [20]): 50; Plant response rating, Velvetleaf (velvetleaf [14]; [19]): 60; Plant response rating, Wheat (wheat [15]; [20]): 0; Plant response rating, Wheat (wheat [15]; [19]): 40; Plant response rating, Corn (corn [16]; [20]): 0; Plant response rating, Corn (corn [16]; [19]): 40; Plant response rating, Rice (rice): 0; Plant response rating, Sedge, Umbrella (sedge, umbrella): 0; Plant response rating, Ducksalad (Heteranthera limosa): 0; Plant response rating, Barnyardgrass (barnyardgrass [17]): 0

— patent publication US9695155B2, “Herbicidal substituted pyrimidinyloxy benzene compounds” (E. I. DU PONT DE NEMOURS AND COMPANY, priority 2013, dated 2017)
